Activity calls are given as the source filed them. The calls are words filed in the database; no cut-off is given here.

Assay [1] relates to HT-29. In words: Cytotoxicity against human HT-29 cells after 48 hrs by Resazurin assay. Particulars: HT-29, 48 h.
Assay [2] can be described thus: Inhibition of bovine brain microtubule polymerization by spectrophotometric analysis. On the set-up: species or system Bos taurus.
Assay [3] deals with HeLa. In words: Antimitotic activity in human HeLa cells assessed as multipolar spindle formation at 3 nM after 6 hrs by DAPI staining-based immunofluorescence analysis. In kind it is functional, cell-based.
Assay [4] has as its system HeLa. The experiment in a line: Antimitotic activity in human HeLa cells assessed as microtubule network damage at interphase at 1 nM after 6 hrs by DAPI staining-based immunofluorescence analysis. In kind it is functional, cell-based.
Assay [5] has as its system HeLa. The experiment in a line: Antimitotic activity in human HeLa cells assessed as disruption of interphase microtubule network at 10 nM after 6 hrs by DAPI staining-based immunofluorescence analysis. The format is functional, cell-based.
Assay [6] concerns HeLa. The experiment in a line: Antimitotic activity in human HeLa cells assessed as disruption of interphase microtubule network at 3 nM after 6 hrs by DAPI staining-based immunofluorescence analysis. In kind it is functional, cell-based.
For assay [7], the system named is HeLa. In words: Antimitotic activity in human HeLa cells assessed as change in dipolar spindle formation in metaphase at 1 nM after 6 hrs by DAPI staining-based immunofluorescence analysis. In kind it is functional, cell-based.
The test system of assay [8] is HT-29. The experiment in a line: Cytotoxicity against human HT-29 cells after 48 hrs by resazurin assay. The format is functional, cell-based. Conditions: HT-29, 48 h. For orientation: The colour change of resazurin is a common sign of viable cells or microbes.
The subject of a further assay is A549. The experiment in a line: Cytotoxicity against human A549 cells after 48 hrs by WST-8 assay. The format is functional, cell-based. Conditions: A549, 48 h.
The test system of assay [9] is HeLa. In words: Cytotoxicity against human HeLa cells after 48 hrs by WST-8 assay. In kind it is functional, cell-based. Background: Tetrazolium assays rely on reduction of a dye to a coloured formazan, in cell work by metabolically active cells.
A further assay deals with tubulin (Sus scrofa). The experiment in a line: Binding affinity to porcine tubulin by spectrophotometric analysis.

In the case of `COc1cc(C(=O)c2cccc(/C=c3\[nH]c(=O)/c(=C/c4nc[nH]c4C(C)(C)C)[nH]c3=O)c2)cc(OC)c1OC`, the IC50 – broadly, the midpoint of a concentration-inhibition curve – in the assay with HT-29 [1] was found to be 2500 nM.

Turning to `COc1ccc(/C=C\c2cc(OC)c(OC)c(OC)c2)cc1O` [COMBRETASTATIN A4], the IC50 in assay [2] stood at 550 nM; with HT-29 [8], 12000 nM; in the assay on A549 it was 5.3 nM; in the assay on HeLa [9], 2.2 nM. Besides, the outcome with HeLa [3] and in the assay with HeLa [5] was Active. The outcome in the assay on HeLa [4], in the assay on HeLa [6] and in the assay on HeLa [7] was inactive.

As for `CC(C)(C)c1[nH]cnc1/C=c1\[nH]c(=O)/c(=C/c2cccc(C(O)c3ccccc3)c2)[nH]c1=O` (centres undefined), in the assay with HT-29 [1], the IC50 amounted to 41 nM.

In the assay on HT-29 [1], `CC(C)(C)c1[nH]cnc1/C=c1\[nH]c(=O)/c(=C/c2ccc(C(=O)c3ccccc3)cc2)[nH]c1=O` registered an IC50 of 1200 nM.

On to `CC(C)(C)c1[nH]cnc1/C=c1\[nH]c(=O)/c(=C/c2cccc(C(=O)c3cccc(Cl)c3)c2)[nH]c1=O`, for which the half-maximal inhibitory concentration (IC50) in the assay with HT-29 [1] came to 2 nM.

For `CC(C)(C)c1[nH]cnc1/C=c1\[nH]c(=O)/c(=C/c2cccc(C(=O)c3cccc(F)c3)c2)[nH]c1=O`, 0.6 nM corresponded to half-maximal inhibition in the assay with HT-29 [1] (IC50).

For the compound `COc1cccc(C(=O)c2cccc(/C=c3\[nH]c(=O)/c(=C/c4nc[nH]c4C(C)(C)C)[nH]c3=O)c2)c1OC`, in the assay on HT-29 [1], the midpoint of inhibition, the IC50, lay at 955 nM.

Regarding `COc1cc2c(c(OC)c1OC)-c1ccc(OC)c(=O)cc1[C@@H](NC(C)=O)CC2` [COLCHICINE], the IC50 in the assay with HT-29 [1] stood at 9.3 nM; in the assay with A549 it was 50.6 nM; in the assay with HeLa [9] it was 20.2 nM.

`COc1ccc(C(=O)c2cccc(/C=c3\[nH]c(=O)/c(=C/c4nc[nH]c4C(C)(C)C)[nH]c3=O)c2)cc1OC` gave an IC50 in the assay with HT-29 [1] of 7300 nM.

In the assay with HT-29 [1], `COc1ccc(C(=O)c2cccc(/C=c3\[nH]c(=O)/c(=C/c4nc[nH]c4C(C)(C)C)[nH]c3=O)c2)cc1` returned an IC50 of 3.8 nM.

On to `CC(C)(C)c1[nH]cnc1/C=c1\[nH]c(=O)/c(=C/c2cccc(C(=O)c3ccc(Cl)cc3)c2)[nH]c1=O`, for which the half-inhibitory concentration (IC50) in the assay with HT-29 [1] was 1.1 nM.

Turning to `CC(C)(C)c1[nH]cnc1/C=c1\[nH]c(=O)/c(=C/c2cccc(C(=O)c3ccc(F)cc3)c2)[nH]c1=O`, the half-inhibitory concentration (IC50) in assay [2] amounted to 900 nM; with HT-29 [1], 0.5 nM; in the assay on A549, 0.8 nM; in the assay on HeLa [9], 1.7 nM. The result in the assay on HeLa [3], with HeLa [5] and in the assay on HeLa [6] was Active. For the same compound, the outcome with HeLa [4] and in the assay with HeLa [7] was inactive. For the same compound, at tubulin (Sus scrofa), binding was characterised by a dissociation constant (Kd) of 72 nM.

In the assay on HT-29 [1], `COc1ccccc1C(=O)c1cccc(/C=c2\[nH]c(=O)/c(=C/c3nc[nH]c3C(C)(C)C)[nH]c2=O)c1` displayed a concentration for half-maximal inhibition (IC50) of 360 nM.

Consider `CC(C)(C)c1[nH]cnc1/C=c1\[nH]c(=O)/c(=C/c2cccc(C(=O)c3ccccc3F)c2)[nH]c1=O`, for which the IC50 in the assay with HT-29 [1] was 3 nM.

In turn, `COc1ccc(C(=O)c2cccc(/C=c3\[nH]c(=O)/c(=C/c4nc[nH]c4C(C)(C)C)[nH]c3=O)c2)c(OC)c1` showed an IC50 with HT-29 [1] of 1800 nM. Compared with the last compound, the IC50 is about 600-fold higher.

In the assay on HT-29 [1], `CC(C)(C)c1[nH]cnc1/C=c1\[nH]c(=O)/c(=C/c2cccc(C(=O)c3ccccc3Cl)c2)[nH]c1=O` had a 50% inhibitory concentration (IC50) of 6 nM.

With `CC(C)(C)c1[nH]cnc1/C=c1\[nH]c(=O)/c(=C/c2cccc(C(=O)c3ccc(C(F)(F)F)cc3)c2)[nH]c1=O`, the IC50 with HT-29 [1] amounted to 147 nM.

In the assay on HT-29 [8], `CC(C)(C)c1[nH]cnc1/C=c1\[nH]c(=O)/c(=C/c2ccc3c(c2)C(=O)c2ccccc2-3)[nH]c1=O` had an IC50 of 2800 nM.

Consider `CC(C)(C)c1[nH]cnc1/C=c1\[nH]c(=O)/c(=C/c2cccc(C(=O)c3ccc(Br)cc3)c2)[nH]c1=O`, for which half-maximal inhibition with HT-29 [1] (IC50) required 4 nM.

In turn, `COc1cccc(C(=O)c2cccc(/C=c3\[nH]c(=O)/c(=C/c4nc[nH]c4C(C)(C)C)[nH]c3=O)c2)c1` gave an IC50 in the assay with HT-29 [1] of 39 nM.
